Earlier results in PubChem BioAssay AID1259409 (Chemical Carcinogenesis Research Information System (CCRIS), 2018).

Test system: rodent chemically induced tumor inhibition, incidence and multiplicity
Experiment: CCRIS tumor inhibitor studies

For `C[C@H]1[C@H](C)CC[C@]2(C(=O)O)CC[C@]3(C)C(=CC[C@@H]4[C@@]5(C)CC[C@H](O)C(C)(C)[C@@H]5CC[C@]43C)[C@H]12`, the “tumour outcome (control, treated, inhibition, significance)” value (Carcinogen: 7,12-DIMETHYLBENZ[A]ANTHRACENE : 57-97-6, Dose [Inhibitor]: 0, 2 UMOL IN 200 µL ACETONE 2/WK FOR 20 WK BEGINNING 1 WK POST CARCINOGEN DOSE (STUDY DURATION: 20 WK), Route [Inhibitor]: DERMAL, Species: MOUSE, Strain/Sex: CD-1/FEMALE, Target Tissue: Type of Lesion: SKIN: TUMOR, Dose [Carcinogen]: 200 NMOL IN 200 µL ACETONE ONCE, Promoter: 12-O-TETRADECANOYLPHORBOL-13-ACETATE, 16561-29-8) is listed as 93%, 62%, 33%, not significant, the “tumour outcome (control, treated, inhibition, significance)” value (Carcinogen: 7,12-DIMETHYLBENZ[A]ANTHRACENE, 57-97-6, Dose [Inhibitor]: 0, 0.1 UMOL IN 200 µL ACETONE 2/WK FOR 18 WK BEGINNING 1 WK POST CARCINOGEN DOSE (STUDY DURATION: 18 WK), Route [Inhibitor]: DERMAL, Species: MOUSE, Strain/Sex: CD-1/FEMALE, Target Tissue: Type of Lesion: SKIN: TUMOR, Dose [Carcinogen]: 200 NMOL IN 200 µL ACETONE ONCE, Promoter: 12-O-TETRADECANOYLPHORBOL-13-ACETATE, 16561-29-8) is listed as 87%, 87%, 0%, not significant and the “tumour outcome (control, treated, inhibition, significance)” value (Carcinogen: 7,12-DIMETHYLBENZ[A]ANTHRACENE, 57-97-6, Dose [Inhibitor]: 0, 0.3 UMOL IN 200 µL ACETONE 2/WK FOR 18 WK BEGINNING 1 WK POST CARCINOGEN DOSE (STUDY DURATION: 18 WK), Route [Inhibitor]: DERMAL, Species: MOUSE, Strain/Sex: CD-1/FEMALE, Target Tissue: Type of Lesion: SKIN: TUMOR, Dose [Carcinogen]: 200 NMOL IN 200 µL ACETONE ONCE, Promoter: 12-O-TETRADECANOYLPHORBOL-13-ACETATE, 16561-29-8) is listed as 87%, 93%, -7%, not significant. The “tumour outcome (control, treated, inhibition, significance)” value (Carcinogen: 7,12-DIMETHYLBENZ[A]ANTHRACENE, 57-97-6, Dose [Inhibitor]: 0, 1 UMOL IN 200 µL ACETONE 2/WK FOR 18 WK BEGINNING 1 WK POST CARCINOGEN DOSE (STUDY DURATION: 18 WK), Route [Inhibitor]: DERMAL, Species: MOUSE, Strain/Sex: CD-1/FEMALE, Target Tissue: Type of Lesion: SKIN: TUMOR, Dose [Carcinogen]: 200 NMOL IN 200 µL ACETONE ONCE, Promoter: 12-O-TETRADECANOYLPHORBOL-13-ACETATE, 16561-29-8) was 87%, 77%, 11%, not significant, the “tumour outcome (control, treated, inhibition, significance)” value (Carcinogen: 7,12-DIMETHYLBENZ[A]ANTHRACENE, 57-97-6, Dose [Inhibitor]: 0, 1 UMOL IN 200 µL ACETONE 2/WK FOR 20 WK BEGINNING 1 WK POST CARCINOGEN DOSE (STUDY DURATION: 20 WK), Route [Inhibitor]: DERMAL, Species: (30,30)/(30,30), Strain/Sex: CD-1/FEMALE, Target Tissue: Type of Lesion: SKIN: TUMOR, Dose [Carcinogen]: 200 NMOL IN 200 µL ACETONE ONCE, Promoter: 12-O-TETRADECANOYLPHORBOL-13-ACETATE, 16561-29-8) was 93%, 80%, 14%, not significant and the “tumour outcome (control, treated, inhibition, significance)” value (Carcinogen: 7,12-DIMETHYLBENZ[A]ANTHRACENE, 57-97-6, Dose [Inhibitor]: 0, 2 UMOL IN 200 µL ACETONE 2/WK FOR 18 WK BEGINNING 1 WK POST CARCINOGEN DOSE (STUDY DURATION: 18 WK), Route [Inhibitor]: DERMAL, Species: MOUSE, Strain/Sex: CD-1/FEMALE, Target Tissue: Type of Lesion: SKIN: TUMOR, Dose [Carcinogen]: 200 NMOL IN 200 µL ACETONE ONCE, Promoter: 12-O-TETRADECANOYLPHORBOL-13-ACETATE, 16561-29-8) was 87%, 60%, 31%, not significant.

In the case of `CCCC(C(=O)OCCN(CC)CC)(c1ccccc1)c1ccccc1`, the “tumour outcome (control, treated, inhibition, significance)” value (Carcinogen: URETHANE, 51-79-6, Dose [Inhibitor]: 0, 50 MG/KG ONCE AT 24 HR AND 1 HR PRIOR TO CARCINOGEN DOSE THEN ONCE 24 HR AND 48 HR POST CARCINOGEN DOSE (STUDY DURATI, Route [Inhibitor]: INTRAPERITONEAL, Species: MOUSE, Strain/Sex: BALB/MALE, FEMALE, Target Tissue: Type of Lesion: LUNG: TUMOR, Dose [Carcinogen]: 0.5 G/KG IN 0.9% SALINE ONCE, Promoter: NONE USED) is listed as 94%, 91%, 3%, not significant.

For `O=C(/C=C/c1ccc(O)c(O)c1)O[C@@H]1C[C@](O)(C(=O)O)C[C@@H](O)[C@H]1O`, the “tumour outcome (control, treated, inhibition, significance)” value (Carcinogen: 4-NITROQUINOLINE-1-OXIDE, 56-57-5, Dose [Inhibitor]: 0, 250 PPM IN DIET FOR 7 WK BEGINNING 1 WK PRIOR TO START OF CARCINOGEN TREATMENT (STUDY DURATION: 32 WK), Route [Inhibitor]: ORAL, Species: RAT, Strain/Sex: F344/MALE, Target Tissue: Type of Lesion: TONGUE: PAPILLOMA, Dose [Carcinogen]: 20 PPM IN DRINKING WATER FOR 5 WK, Promoter: NONE USED) is listed as 1/15 (7%), 1/15 (7%), 0%, not significant, the “tumour outcome (control, treated, inhibition, significance)” value (Carcinogen: 7,12-DIMETHYLBENZ[A]ANTHRACENE, 57-97-6, Dose [Inhibitor]: 10 UMOL IN 200 µL ACETONE/DMSO (90:10) 2/WK FOR 19 WK BEGINNING 1 WK POST CARCINOGEN DOSE (STUDY DURATION: 20 WK), Route [Inhibitor]: DERMAL, Species: MOUSE, Strain/Sex: CD-1/FEMALE, Target Tissue: Type of Lesion: SKIN: PAPILLOMA, Dose [Carcinogen]: 200 NMOL IN 200 µL ACETONE ONCE, Promoter: 12-O-TETRADECANOYLPHORBOL-13-ACETATE, 16561-29-8) is listed as 68%, 47%, 31%, not calculated and the “tumour outcome (control, treated, inhibition, significance)” value (Carcinogen: 7,12-DIMETHYLBENZ[A]ANTHRACENE, 57-97-6, Dose [Inhibitor]: 20 UMOL IN 200 µL ACETONE/DMSO (90:10) 2/WK FOR 19 WK BEGINNING 1 WK POST CARCINOGEN DOSE (STUDY DURATION: 20 WK), Route [Inhibitor]: DERMAL, Species: MOUSE, Strain/Sex: CD-1/FEMALE, Target Tissue: Type of Lesion: SKIN: PAPILLOMA, Dose [Carcinogen]: 200 NMOL IN 200 µL ACETONE ONCE, Promoter: 12-O-TETRADECANOYLPHORBOL-13-ACETATE, 16561-29-8) is listed as 68%, 27%, 60%, not calculated. For the same compound, the “tumour outcome (control, treated, inhibition, significance)” value (Carcinogen: N-METHYL-N-NITROSOUREA [684-93-5], Dose [Inhibitor]: 250 PPM IN DIET FOR 22 WK BEGINNING 1 WK POST LAST CARCINOGEN DOSE (STUDY DURATION: 35 WK), Route [Inhibitor]: ORAL, Species: RAT, Strain/Sex: F344/MALE, Target Tissue: Type of Lesion: GLANDULAR STOMACH: ADENOCARCINOMA, Dose [Carcinogen]: 400 PPM IN DRINKING WATER FOR 12 WK (STUDY DURATION: 35 WK), Promoter: NONE) was 12/20 (60.0%), 4/17 (23.5%), 61%, p<0.03, the “tumour outcome (control, treated, inhibition, significance)” value (Carcinogen: N-METHYL-N-NITROSOUREA [684-93-5], Dose [Inhibitor]: 500 PPM IN DIET FOR 22 WK BEGINNING 1 WK POST LAST CARCINOGEN DOSE (STUDY DURATION: 35 WK), Route [Inhibitor]: ORAL, Species: RAT, Strain/Sex: F344/MALE, Target Tissue: Type of Lesion: GLANDULAR STOMACH: ADENOCARCINOMA, Dose [Carcinogen]: 400 PPM IN DRINKING WATER FOR 12 WK (STUDY DURATION: 35 WK), Promoter: NONE) was 12/20 (60.0%), 7/21 (33.3%), 45%, not significant and the “tumour outcome (control, treated, inhibition, significance)” value (Carcinogen: N-NITROQUINOLINE-1-OXIDE, 56-57-5, Dose [Inhibitor]: 0, 250 PPM IN DIET FOR 7 WK BEGINNING 1 WK PRIOR TO START OF CARCINOGEN TREATMENT (STUDY DURATION: 32 WK), Route [Inhibitor]: ORAL, Species: RAT, Strain/Sex: F344\MALE, Target Tissue: Type of Lesion: TONGUE: CARCINOMA, Dose [Carcinogen]: 20 PPM IN DRINKING WATER FOR 5 WK, Promoter: NONE USED) was 9/15 (60%), 1/15 (7%), 88%, p=0.0025.

In the case of `O=[N+]([O-])[O-].O=[N+]([O-])[O-].O=[N+]([O-])[O-].[Bi+3]`, the “tumour outcome (control, treated, inhibition, significance)” value (Carcinogen: CISPLATIN, 15663-27-1, Dose [Inhibitor]: 0, 50 UMOL/KG/D 3 D/WK FOR 8 WK ADMINISTERED 24 HR PRIOR TO EACH CARCINOGEN DOSE (STUDY DURATION: 24 WK), Route [Inhibitor]: SUBCUTANEOUS, Species: MOUSE, Strain/Sex: STRAIN-A/FEMALE, Target Tissue: Type of Lesion: LUNG: TUMOR, Dose [Carcinogen]: 2 UMOL/KG/D 3 D/WK FOR 8 WK, Promoter: NONE USED) is listed as 100%, 54%, 46%, p<0.01 and the “tumour outcome (control, treated, inhibition, significance)” value (Carcinogen: MELPHALAN, 148-82-3, Dose [Inhibitor]: 0, 50 UMOL/KG/D 3 D/WK FOR 8 WK ADMINISTERED 24 HR PRIOR TO EACH CARCINOGEN DOSE (STUDY DURATION: 24 WK), Route [Inhibitor]: SUBCUTANEOUS, Species: MOUSE, Strain/Sex: STRAIN-A/FEMALE, Target Tissue: Type of Lesion: LUNG: TUMOR, Dose [Carcinogen]: 4 UMOL/KG/D 3 D/WK FOR 8 WK, Promoter: NONE USED) is listed as 100%, 100%, 0%, not significant.

For `CC(O)CCC(=O)c1cccnc1` (configuration not stated), the “tumour outcome (control, treated, inhibition, significance)” value (Carcinogen: 4-(METHYLNITROSAMINO)-1-(3-PYRIDYL)-1-BUTANONE, 64091-91-4, Dose [Inhibitor]: 0, 25 UMOL IN 0.1 ML CORN OIL ONCE 2 HR PRIOR TO CARCINOGEN DOSE (STUDY DURATION: 16 WK), Route [Inhibitor]: GAVAGE, Species: MOUSE, Strain/Sex: STRAIN-A/FEMALE, Target Tissue: Type of Lesion: LUNG: ADENOMA, Dose [Carcinogen]: 10 UMOL IN 0.1 ML SALINE ONCE, Promoter: NONE USED) is listed as 100%, 100%, 0%, not significant.

In the case of `O=C1CC(C(=O)O)C(C(=O)O)O1` (configuration not stated), the “tumour outcome (control, treated, inhibition, significance)” value (Carcinogen: BENZO[A]PYRENE, 50-32-8, Dose [Inhibitor]: 0.034 MMOL/G IN DIET FOR 5 WK BEGINNING 1 WK PRIOR TO FIRST CARCINOGEN DOSE AND CONTINUING FOR 3 D POST LAST CARCINOGEN, Route [Inhibitor]: ORAL, Species: MOUSE, Strain/Sex: ICR/HA/FEMALE, Target Tissue: Type of Lesion: FORESTOMACH: TUMOR, Dose [Carcinogen]: 1 MG IN 0.2 ML CORN OIL 2/WK FOR 4 WK STARTING, Promoter: NONE USED) is listed as 100%, 100%, 0%, not significant.
